This note sets out measurements from patent US20250075179A1, “METHODS FOR INCREASING VIRAL TRANSDUCTION OF CELLS” (Trustees of Dartmouth College, priority 2021, published 2025).

Holding throughout (format): cell-based
For experiment [1], the system named is human naïve B cells.
Experiment [2] has as its system human naïve B cells. Briefly: Antibody class switching of naïve B cells after statin treatment, flow cytometry on Day 14. The note with it: 5 μM Rosuvastatin 48 hours, then culture to Day 14, versus PBS control, FIG. 3. The protocol: As noted above, statins and other agents should not substantially reduce target cell activity and function. One function of naïve B cells is the ability to engage in antibody class switching. […] Specifically, human naïve B cells were isolated and cultured as described above in Example 1. Cells were plated at a density of 1×10^5 cells B cells per 6 well with 1×10^4 feeder cells plated the previous day. The dual culture was grown in the media and cytokine mix described above with or without 5 μM Rosuvastatin. After 48 hours of treatment, media was changed and cells were allowed to continue growing in the media and fresh cytokines. Every 3-4 days half of the media was removed and replaced with fresh media and cytokines at 1× concentration. Cells were trypsinized and split 1:5 at day 7. Subclass of expressed antibody was assessed by flow cytometry on Day 14.
(Flow cytometry measures light scatter and fluorescence of single cells or particles in a stream.)

Experiment [3] relates to human naïve B cells. Briefly: LDL-R antibody enhancement of lentiviral transduction of B cells in feeder culture, GFP by flow cytometry. Conditions: 48 hour 5 μM Rosuvastatin.

`CC(C)c1nc(N(C)S(C)(=O)=O)nc(-c2ccc(F)cc2)c1/C=C/[C@@H](O)C[C@@H](O)CC(=O)O` [rosuvastatin]: in the experiment with human naïve B cells [1], the “B cell transduction percentage, some replicates” value is “exceeding 90%”; the “GFP expression compared to B cells not treated with the statin or not transduced” value is “substantially higher”; the “average B cell transduction percentage as measured by GFP expression, between technical replicates” value is given as 80%; the “transduction relative to B cells not incubated with rosuvastatin” value is “about 100 fold”. Also, the “percent of B cells expressing the measured subclasses of antibody (class switching)” value with human naïve B cells [2] is “did not alter”. The “Median Fluorescence Intensity” value in the experiment on human naïve B cells [3] (GFP+ virus, feeder culture + 250 ng/ml IL-2, no LDL-R antibody) is 9.5. Also, the “Median Fluorescence Intensity” value in the experiment on human naïve B cells [3] (GFP+ virus, feeder culture + 250 ng/ml IL-2, with anti-mouse LDL-R antibody 2 μg/mL) turned out to be 10. For the same molecule, the “Median Fluorescence Intensity” value with human naïve B cells [3] (GFP− virus (control virus), feeder culture + 250 ng/ml IL-2, no LDL-R antibody) turned out to be 3.
